# In ChEMBL document CHEMBL1201862, “PubChem BioAssay data set” (2004):
#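 A five-concentration, 48-hour dose response in 96-well plates underlies each endpoint, interpolated linearly between surrounding concentrations. GI50 = concentration required for 50% inhibition of growth.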 The source made the active and inactive calls. Cut-off read from the data, not from the text of the source: active = GI50 up to about 1.1 µM and inactive = higher.
# Experiments:
# Test in all cases: NCI anticancer screen, dose series, 48 h
# 786-0 = test system: 786-0
# A498 = test system: A498
# A549 = test system: A549
# ACHN = test system: ACHN
# CAKI-1 = test system: CAKI-1
# CCRF-CEM = test system: CCRF-CEM
# COLO 205 = test system: COLO 205
# DMS-273 = test system: DMS-273
# EKVX = test system: EKVX
# HCC 2998 = test system: HCC 2998
# HCT-116 = test system: HCT-116
# HCT-15 = test system: HCT-15
# HL-60 = test system: HL-60
# HOP-62 = test system: HOP-62
# HOP-92 = test system: HOP-92
# HT-29 = test system: HT-29
# IGROV-1 = test system: IGROV-1
# KM-20L2 = test system: KM-20L2
# KM12 = test system: KM12
# LOX IMVI = test system: LOX IMVI
# LXFL 529 = test system: LXFL 529
# M14 = test system: M14
# M19-MEL = test system: M19-MEL
# MOLT-4 = test system: MOLT-4
# Malme-3M = test system: Malme-3M
# NCI-H23 = test system: NCI-H23
# NCI-H460 = test system: NCI-H460
# NCI-H522 = test system: NCI-H522
# OVCAR-3 = test system: OVCAR-3
# OVCAR-4 = test system: OVCAR-4
# OVCAR-8 = test system: OVCAR-8
# RPMI-8226 = test system: RPMI-8226
# RXF 393 = test system: RXF 393
# SF-268 = test system: SF-268
# SF-295 = test system: SF-295
# SF-539 = test system: SF-539
# SK-MEL-28 = test system: SK-MEL-28
# SK-MEL-2 = test system: SK-MEL-2
# SK-MEL-5 = test system: SK-MEL-5
# SK-OV-3 = test system: SK-OV-3
# SN12C = test system: SN12C
# SNB-19 = test system: SNB-19
# SNB-75 = test system: SNB-75
# SNB-78 = test system: SNB-78
# SW-620 = test system: SW-620
# TK-10 = test system: TK-10
# U-251 = test system: U-251
# UACC-257 = test system: UACC-257
# UACC-62 = test system: UACC-62
# UO-31 = test system: UO-31
# BT-549 = test system: BT-549
# DU-145 = test system: DU-145
# Hs-578T = test system: Hs-578T
# K562 = test system: K562
# MCF7 = test system: MCF7
# MDA-MB-231 = test system: MDA-MB-231
# MDA-MB-435 = test system: MDA-MB-435
# MDA-N = test system: MDA-N
# NCI-H226 = test system: NCI-H226
# NCI/ADR-RES = test system: NCI/ADR-RES
# OVCAR-5 = test system: OVCAR-5
# PC-3 = test system: PC-3
# SR = test system: SR
# T47D = test system: T47D
compound,measurement,setting,value
CCCCCCCC(=O)OCC1OC(n2cc(F)c(=O)[nH]c2=O)C(N)C(OC(=O)CCCCCCC)C1O (centres undefined),GI50,786-0,19400 nM (inactive)
same,GI50,A498,20300 nM (inactive)
same,GI50,A549,18300 nM (inactive)
same,GI50,ACHN,20200 nM (inactive)
same,GI50,CAKI-1,16800 nM (inactive)
same,GI50,CCRF-CEM,17600 nM (inactive)
same,GI50,COLO 205,18500 nM (inactive)
same,GI50,DMS-273,16600 nM (inactive)
same,GI50,EKVX,19100 nM (inactive)
same,GI50,HCC 2998,16500 nM (inactive)
same,GI50,HCT-116,19500 nM (inactive)
same,GI50,HCT-15,18500 nM
same,GI50,HL-60,20200 nM (inactive)
same,GI50,HOP-62,18600 nM (inactive)
same,GI50,HOP-92,18400 nM (inactive)
same,GI50,HT-29,19300 nM (inactive)
same,GI50,IGROV-1,20300 nM (inactive)
same,GI50,KM-20L2,18900 nM (inactive)
same,GI50,KM12,21200 nM (inactive)
same,GI50,LOX IMVI,18500 nM (inactive)
same,GI50,LXFL 529,17100 nM (inactive)
same,GI50,M14,17900 nM (inactive)
same,GI50,M19-MEL,20200 nM (inactive)
same,GI50,MOLT-4,15500 nM (inactive)
same,GI50,Malme-3M,17500 nM (inactive)
same,GI50,NCI-H23,20100 nM (inactive)
same,GI50,NCI-H460,19400 nM (inactive)
same,GI50,NCI-H522,14500 nM (inactive)
same,GI50,OVCAR-3,20800 nM (inactive)
same,GI50,OVCAR-4,15200 nM (inactive)
same,GI50,OVCAR-8,17800 nM (inactive)
same,GI50,RPMI-8226,23200 nM (inactive)
same,GI50,RXF 393,18000 nM (inactive)
same,GI50,SF-268,18500 nM (inactive)
same,GI50,SF-295,17500 nM (inactive)
same,GI50,SF-539,20500 nM (inactive)
same,GI50,SK-MEL-28,17300 nM (inactive)
same,GI50,SK-MEL-2,18800 nM (inactive)
same,GI50,SK-MEL-5,10500 nM (inactive)
same,GI50,SK-OV-3,28800 nM (inactive)
same,GI50,SN12C,17500 nM (inactive)
same,GI50,SNB-19,17500 nM (inactive)
same,GI50,SNB-75,15000 nM (inactive)
same,GI50,SNB-78,20000 nM (inactive)
same,GI50,SW-620,18400 nM (inactive)
same,GI50,TK-10,23400 nM (inactive)
same,GI50,U-251,19500 nM (inactive)
same,GI50,UACC-257,17800 nM (inactive)
same,GI50,UACC-62,17800 nM (inactive)
same,GI50,UO-31,19500 nM (inactive)
C/C(=N\Nc1nc2cc(C(F)(F)F)ccc2s1)c1ccccn1,GI50,786-0,340 nM (active)
same,GI50,A498,1520 nM (inactive)
same,GI50,A549,593 nM (active)
same,GI50,ACHN,113 nM (active)
same,GI50,BT-549,3350 nM (inactive)
same,GI50,CAKI-1,53.7 nM (active)
same,GI50,CCRF-CEM,85.3 nM (active)
same,GI50,COLO 205,44.2 nM (active)
same,GI50,DU-145,401 nM (active)
same,GI50,EKVX,43.1 nM (active)
same,GI50,HCC 2998,2600 nM (inactive)
same,GI50,HCT-116,78.3 nM (active)
same,GI50,HCT-15,99.3 nM
same,GI50,HL-60,127 nM (active)
same,GI50,HOP-62,2410 nM (inactive)
same,GI50,HOP-92,593 nM (active)
same,GI50,HT-29,42.2 nM (active)
same,GI50,Hs-578T,1910 nM (inactive)
same,GI50,IGROV-1,123 nM (active)
same,GI50,K562,266 nM (active)
same,GI50,KM12,526 nM (active)
same,GI50,LOX IMVI,287 nM (active)
same,GI50,M14,282 nM (active)
same,GI50,MCF7,75.3 nM (active)
same,GI50,MDA-MB-231,55.5 nM (active)
same,GI50,MDA-MB-435,469 nM (active)
same,GI50,MDA-N,1060 nM (active)
same,GI50,MOLT-4,26.4 nM (active)
same,GI50,Malme-3M,62.2 nM (active)
same,GI50,NCI-H226,124 nM (active)
same,GI50,NCI-H23,452 nM (active)
same,GI50,NCI-H460,452 nM (active)
same,GI50,NCI-H522,111 nM (active)
same,GI50,NCI/ADR-RES,291 nM (active)
same,GI50,OVCAR-3,826 nM (active)
same,GI50,OVCAR-4,321 nM (active)
same,GI50,OVCAR-5,2470 nM (inactive)
same,GI50,OVCAR-8,62.1 nM (active)
same,GI50,PC-3,1670 nM (inactive)
same,GI50,RPMI-8226,402 nM (active)
same,GI50,RXF 393,1360 nM (inactive)
same,GI50,SF-268,333 nM (active)
same,GI50,SF-295,408 nM (active)
same,GI50,SF-539,1420 nM (inactive)
same,GI50,SK-MEL-28,211 nM (active)
same,GI50,SK-MEL-2,594 nM (active)
same,GI50,SK-MEL-5,338 nM (active)
same,GI50,SK-OV-3,245 nM (active)
same,GI50,SN12C,230 nM (active)
same,GI50,SNB-19,968 nM (active)
same,GI50,SNB-75,1980 nM (inactive)
same,GI50,SR,62.4 nM (active)
same,GI50,SW-620,102 nM (active)
same,GI50,T47D,239 nM (active)
same,GI50,TK-10,2520 nM (inactive)
same,GI50,U-251,448 nM (active)
same,GI50,UACC-257,452 nM (active)
same,GI50,UACC-62,303 nM (active)
same,GI50,UO-31,31.6 nM (active)
